Measured values published in ChEMBL document CHEMBL5104135, “Potent and selective TYK2-JH1 inhibitors highly efficacious in rodent model of psoriasis” (Bioorg Med Chem Lett, 2022).
Converted amounts (≈) assume the structure as drawn.

Legend:
Homo sapiens [1] = species: Homo sapiens; test: Ratio Ki for inhibition of JAK3 (unknown origin) over TYK2 JH1 domain (unknown origin)
Homo sapiens [2] = species: Homo sapiens; test: Ratio Ki for inhibition of JAK2 (unknown origin) over TYK2 JH1 domain (unknown origin)
Homo sapiens [3] = species: Homo sapiens; test: Ratio Ki for inhibition of JAK1 (unknown origin) over TYK2 JH1 domain (unknown origin)
[4] = Efflux ratio of apparent permeability in human Caco-2 cells
[5] = Kinetic solubility of compound at pH 7.4; settings: buffer
[6] = Thermodynamic solubility in fasted simulated intestinal fluid; type: physicochemical; settings: read-out: Therm_solubility
[7] = Thermodynamic solubility in simulated gastric fluid; type: physicochemical; settings: read-out: Therm_solubility
[8] = target: Non-receptor tyrosine-protein kinase TYK2 (Homo sapiens, UniProt P29597)
Sequence of Non-receptor tyrosine-protein kinase TYK2 (P29597 whole entry): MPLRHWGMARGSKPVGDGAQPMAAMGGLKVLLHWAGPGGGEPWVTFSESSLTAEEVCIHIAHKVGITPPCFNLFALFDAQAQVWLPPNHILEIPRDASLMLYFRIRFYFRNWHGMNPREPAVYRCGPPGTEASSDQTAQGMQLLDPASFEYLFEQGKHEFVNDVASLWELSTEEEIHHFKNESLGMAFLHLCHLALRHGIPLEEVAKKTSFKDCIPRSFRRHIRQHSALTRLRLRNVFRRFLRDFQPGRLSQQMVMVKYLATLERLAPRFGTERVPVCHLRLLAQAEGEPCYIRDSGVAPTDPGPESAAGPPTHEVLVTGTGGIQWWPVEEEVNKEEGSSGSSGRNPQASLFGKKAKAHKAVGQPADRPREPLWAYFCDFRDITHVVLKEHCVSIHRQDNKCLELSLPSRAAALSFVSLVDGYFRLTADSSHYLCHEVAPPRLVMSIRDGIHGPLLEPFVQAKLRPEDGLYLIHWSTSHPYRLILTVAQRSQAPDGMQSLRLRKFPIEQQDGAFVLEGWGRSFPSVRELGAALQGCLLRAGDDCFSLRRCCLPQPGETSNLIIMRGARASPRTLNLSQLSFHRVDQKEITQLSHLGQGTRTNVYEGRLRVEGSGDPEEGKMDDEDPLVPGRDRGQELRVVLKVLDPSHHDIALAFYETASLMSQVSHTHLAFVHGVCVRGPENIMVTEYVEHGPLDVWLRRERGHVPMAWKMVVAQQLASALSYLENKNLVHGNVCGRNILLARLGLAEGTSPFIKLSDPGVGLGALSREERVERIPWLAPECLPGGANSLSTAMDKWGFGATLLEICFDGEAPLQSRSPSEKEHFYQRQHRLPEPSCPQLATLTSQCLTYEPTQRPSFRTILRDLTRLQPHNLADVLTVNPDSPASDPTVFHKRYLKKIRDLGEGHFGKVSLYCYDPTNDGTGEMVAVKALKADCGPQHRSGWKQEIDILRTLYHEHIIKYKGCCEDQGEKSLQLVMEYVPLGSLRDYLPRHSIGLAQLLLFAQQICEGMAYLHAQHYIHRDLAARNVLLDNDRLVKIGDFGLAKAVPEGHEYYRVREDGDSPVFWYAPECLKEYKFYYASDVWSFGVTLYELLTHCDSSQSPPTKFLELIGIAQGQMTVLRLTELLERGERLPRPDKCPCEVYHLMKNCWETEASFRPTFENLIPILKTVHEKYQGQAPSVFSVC
Description: Inhibition of TYK2 JH1 domain (unknown origin) measured in presence of 10 uM ATP

[9] = Plasma protein binding in mouse assessed as unbound fraction
Blood [10] = test: Inhibition of IL-12- induced IFN-gamma production in human whole blood; type: functional, tissue-based; settings: for IC50: Homo sapiens, Blood
[11] = Plasma protein binding in human assessed as unbound fraction
Blood [12] = test: Inhibition of IL-12- induced IFN-gamma production in mouse whole blood; type: functional, tissue-based; settings: for IC50: Mus musculus, Blood

| Ratio Ki (Homo sapiens [1]) | Ratio Ki (Homo sapiens [2]) | Ratio Ki (Homo sapiens [3]) | efflux ratio [4] | Structure (SMILES) | further results |
| --- | --- | --- | --- | --- | --- |
| 2.3 | 1.1 | 1.4 |  | NC(=O)c1ccc(NC(=O)c2ccc[nH]c2=O)cc1 |  |
| 25 | 120 | 160 | 1.5 | O=C1NCc2nc(-c3c(F)cccc3F)cc(Nc3ccc(N4CCC(O)CC4)cn3)c21 | solubility kinetic [5]: 65 µM (≈ 28.4 µg/mL) |
| 5.7 | 72 | 39 | 9.6 | CCNC(=O)Cc1ccc(Nc2cc(-c3c(F)cccc3F)nc3c2C(=O)NC3)nc1 | solubility kinetic [5]: 0.6 µM (≈ 0.254 µg/mL) |
| 1.3 | 2.5 | 5.3 |  | CC(C)c1nc(Nc2ccc(C(=O)O)cc2)c2c(=O)[nH]ccc2n1 |  |
| 4.6 | 30 | 17 | 6.4 | CCNC(=O)Cc1ccc(Nc2nc(-c3c(F)cccc3F)nc3c2C(=O)NC3)cc1 | solubility kinetic [5]: 1.2 µM (≈ 0.508 µg/mL) |
|  |  |  | 32 | CCNC(=O)C(C)(O)c1ccc(Nc2nc(-c3c(F)cccc3F)nc3c2C(=O)NC3)cc1 (stereo in doubt; 13a) [listing 1 of 2 here] |  |
| 13 | 123 | 27 |  | CCNC(=O)C(C)(O)c1ccc(Nc2nc(-c3c(F)cccc3F)nc3c2C(=O)NC3)cc1 (stereo in doubt; 13b) [listing 1 of 2 here] |  |
| 13 | 77 | 80 | 7.8 | O=C1NCc2nc(-c3c(F)cccc3F)cc(Nc3ccc(N4CCOCC4=O)cn3)c21 | solubility thermodynamic [6]: 24 µM (≈ 10.5 µg/mL); solubility thermodynamic [7]: 418 µM (≈ 183 µg/mL); solubility kinetic [5]: 8.9 µM (≈ 3.89 µg/mL) |
| 1.8 | 12 | 7.3 |  | CCNC(=O)c1ccc(Nc2cc(-c3c(F)cccc3Cl)nc3c2C(=O)NC3)nc1 |  |
| 43 | 300 | 87 |  | CCNC(=O)C(C)(O)c1ccc(Nc2nc(-c3c(F)cccc3F)nc3c2C(=O)NC3)cc1 (stereo in doubt; 13a) [listing 2 of 2 here] |  |
| 170 | 26 | 27 |  | N#Cc1cccc(F)c1-c1cc(Nc2ccc(N3CCOCC3)cn2)c2c(n1)CNC2=O |  |
| 14 | 110 | 110 | 60 | O=C1NCc2nc(-c3c(F)cccc3F)cc(Nc3ccc(C(=O)N4CC[C@H](O)C4)cc3)c21 | solubility kinetic [5]: 290 µM (≈ 131 µg/mL) |
| 10 | 84 | 130 |  | O=C1NCc2nc(-c3c(F)cccc3F)nc(Nc3ccc(C4CCCNC4=O)cc3)c21 (stereo in doubt; 15b) [listing 1 of 2 here] |  |
|  |  |  |  | CCNC(=O)C(C)(O)c1ccc(Nc2nc(-c3c(F)cccc3F)nc3c2C(=O)NC3)cc1 (stereo in doubt; 13b) [listing 2 of 2 here] | Ki [8]: 3.4 nM |
| 69 | 15 | 6.5 |  | CCNC(=O)c1ccc(Nc2cc(-c3c(F)cccc3C#N)nc3c2C(=O)NC3)nc1 |  |
| 8.6 | 35 | 92 | 9.1 | O=C1NCc2nc(-c3c(F)cccc3F)cc(Nc3ccc(C(=O)N4CCOCC4)cc3)c21 | fraction unbound [9]: 0.24; solubility thermodynamic [6]: 148 µM (≈ 66.7 µg/mL); fIC50 (Blood [10]): 0.16 µM; IC50 (Blood [10]): 620 nM; fraction unbound [11]: 0.25; fIC50 (Blood [12]): 0.86 µM; IC50 (Blood [12]): 3600 nM; solubility kinetic [5]: 170 µM (≈ 76.6 µg/mL) |
| 8.8 | 47 | 59 |  | O=C1NCc2nc(-c3c(F)cccc3F)nc(Nc3ccc(CC(=O)N4CCOCC4)cc3)c21 |  |
| 24 | 170 | 84 | 7.2 | CCNC(=O)c1ccc(Nc2cc(-c3c(F)cccc3F)nc3c2C(=O)NC3)nc1 | fraction unbound [9]: 0.16; solubility thermodynamic [6]: 15 µM (≈ 6.14 µg/mL); solubility thermodynamic [7]: 255 µM (≈ 104 µg/mL); fIC50 (Blood [10]): 0.27 µM; IC50 (Blood [10]): 1600 nM; fraction unbound [11]: 0.17; fIC50 (Blood [12]): 0.19 µM; IC50 (Blood [12]): 1200 nM; solubility kinetic [5]: 3.1 µM (≈ 1.27 µg/mL) |
| 11 | 240 | 25 |  | COc1ccc(Nc2nc(-c3c(F)cccc3F)nc3c2C(=O)NC3)cc1 |  |
| 95 | 74 | 7.8 |  | NC(=O)c1cnc(-c2c(F)cccc2F)nc1Nc1ccc(CC(=O)O)cc1 |  |
| 15 | 96 | 55 |  | O=C1NCc2nc(-c3c(F)cccc3F)nc(Nc3ccc(C4CCNC4=O)cc3)c21 (stereo in doubt; 14b) [listing 1 of 2 here] |  |
| 32 | 370 | 400 | 0.68 | O=C1NCc2nc(-c3c(F)cccc3F)cc(Nc3ccc(N4CCC(F)(F)CC4)cn3)c21 | solubility kinetic [5]: 2.4 µM (≈ 1.1 µg/mL) |
| 25 | 120 | 160 | 0.58 | O=C1NCc2nc(-c3c(F)cccc3F)cc(Nc3ccc(N4CCOCC4)cn3)c21 | solubility kinetic [5]: 12 µM (≈ 5.08 µg/mL) |
|  |  |  |  | O=C1NCc2nc(-c3c(F)cccc3F)nc(Nc3ccc(C4CCCNC4=O)cc3)c21 (stereo in doubt; 15b) [listing 2 of 2 here] | Ki [8]: 3.9 nM |
|  |  |  |  | O=C1NCc2nc(-c3c(F)cccc3F)nc(Nc3ccc(C4CCNC4=O)cc3)c21 (stereo in doubt; 14b) [listing 2 of 2 here] | Ki [8]: 1.1 nM |
| 2.3 | 18 | 16 |  | O=C1NCc2nc(-c3c(F)cccc3F)cc(Nc3ccc(C(=O)N4CCOCC4)cn3)c21 |  |
| 3.3 | 23 | 53 |  | O=C1NCc2nc(-c3c(F)cccc3F)cc(Nc3ccc(C(=O)N4CCCC4)cn3)c21 |  |
| 19 | 83 | 77 |  | O=C1NCc2nc(-c3c(F)cccc3F)nc(Nc3ccc(C4CCCNC4=O)cc3)c21 (stereo in doubt; 15a) |  |
| 4 | 35 | 37 |  | O=C1NCc2nc(-c3c(F)cccc3F)nc(Nc3ccc(C4CCNC4=O)cc3)c21 (stereo in doubt; 14a) |  |

| Structure (SMILES) | Ratio Ki (Homo sapiens [1]) | Ratio Ki (Homo sapiens [2]) | Ratio Ki (Homo sapiens [3]) | efflux ratio [4] | further results |
| --- | --- | --- | --- | --- | --- |
| CN1CCN(C(=O)Cc2ccc(Nc3nc(-c4c(F)cccc4F)nc4c3C(=O)NC4)cc2)CC1 | 10 | 52 | 89 |  |  |
| O=C1NCc2nc(-c3c(F)cccc3F)nc(Nc3ccc(CC(=O)N4CCN(CC(F)F)CC4)cc3)c21 | 2.3 | 24 | 31 |  |  |
